In PMC5397059, “Design, synthesis and structure-activity relationship study of wollamide B; a new potential anti TB agent” (PLoS ONE, 2017):
Like-named read-outs stand apart in the source and are kept apart here. Non-standard residues stand in square brackets, D forms with d. Residues, ends and D or L forms follow the SMILES beside them. NMeN = CN[C@@H](CC(N)=O)C(=O)O; NMeL = CN[C@@H](CC(C)C)C(=O)O; dNMeL = CN[C@H](CC(C)C)C(=O)O; NMeV = CN[C@H](C(=O)O)C(C)C; dOrn = NCCC[C@@H](N)C(=O)O

Assays:
[1] = Chrom logD assay; format: physicochemical; settings: pH 7.4, read-out: Log D
Method: The Chromatographic Hydrophobicity Index (CHI) values were measured using a reversed phase HPLC column (50 x 2 mmx 3 μMGemini NX C18, Phenomenex, UK) with fast acetonitrile gradient at starting mobile phase of 100% pH = 7.4 buffer. CHI values are derived directly from the gradient retention times by using a calibration line obtained for standard compounds. The CHI value approximates to the volume % organic concentration when the compound elutes. CHI is linearly transformed into ChromlogD by the formula: ChromlogD=0.0857CHI−2.00
The average error of the assay is ±3 CHI unit or ±0.25 ChromlogD.

[2] = Chemi-Luminescent Nitrogen Detection (CLND) kinetic solubility assay; format: physicochemical; settings: phosphate buffered saline, pH 7.4; kinetic aqueous solubility by CLND; read-out: Solubility
Method: GSK in-house kinetic solubility assay: 5 μL of 10mM DMSO stock solution diluted to 100 uL with pH7.4 phosphate buffered saline, equilibrated for 1 hour at room temperature, filtered through Millipore Multiscreen HTS-PCF filter plates (MSSL BPC).
The filtrate is quantified by suitably calibrated flow injection CLND. The standard error of the CLND solubility determination is ±30 μM, the upper limit of the solubility is 500 μM when working from 10 mM DMSO stock solution.

[3] = Intrinsic clearance (CLint) assay, mouse liver microsomes; format: in vitro ADME; settings: for % LBF Mouse: liver blood flow; for CLint Mouse: mouse liver microsomes; for half-life at 0.5 µM: mouse, pooled mouse liver microsomes, pH 7.4, read-out: Microsomal t1/2 Mouse; for CLpred Mouse: predicted metabolic clearance
Method: (§1) Pooled mouse and human liver microsomes are purchased from Xenotech. Microsomes (final protein concentration 0.5 mg/mL, MgCl2 (final concentration = 5 mM) and test compound (final substrate concentration = 0.5] M; final DMSO concentration = 0.5%) in 0.1 M phosphate buffer pH 7.4 are pre-incubated at 37°C prior to the addition of NADPH (final concentration = 1 mM) to initiate the reaction. The final incubation volume is 600 μL.
(§2) Control incubation is included for each compound tested where 0.1 M phosphate buffer pH 7.4 is added instead of NADPH (minus NADPH). One control compound is included with each species. All incubations are performed singularly for each test compound. Each compound is incubated for 45 minutes and samples (100 μL) of incubate are taken at 0, 5, 15, 30 and 45 min. The control (minus NADPH) is sampled at 30 min only. The reactions are stopped by the addition of sample to 200 μL Acetonitrile: Methanol 3:1 containing internal standard. The terminated samples are centrifuged at 2,500 rpm for 20 min at 4°C to precipitate the protein. Quantitative analysis: following protein precipitation, the samples were analyzed using specific LC-MS/MS conditions. Data analysis: from a plot of ln peak area ratio (compound peak area/internal standard peak area) against time, the gradient of the line was determined. Subsequently, half-life and intrinsic clearance were calculated using the equations below: Eliminationrateconstant(K)=(−gradient) Halflife(t1/2)(min)=0.693/K Cli(mL/min/gprotien)=V×0.693/t1/2 WhereV=Incubationvolume(mL/gmicrosomalprotien)

[4] = Artificial membrane permeability assay; format: in vitro ADME; settings: PAMPA, pH 7.4; passive artificial membrane permeability; read-out: Permeability
Method: A 8% L-a-phosphatidylcholine (EPC) in 1% cholesterol decane solution and a 1.8% EPC in cholesterol decane solution were prepared. The lipid solution was then aliquoted into 4 mL capped vials, sealed with parafilm and stored in-20°Cfreezer. The lipid solution was then transferred from 4 mL vial into 96-well half area plate (130μL/well) for daily assay usage. An additional 50 mM phosphate buffer with 0.5% encapsin, pH at 7.4 was prepared. The assay was run by the Biomek FX and Biomek software. The assay procedure is written under the Biomek software. For one batch assay, it can test two 96-well sample plates with at least one standard on each sample plate. The total assay time was about 4 hours. 3.5 μL of lipid solution were added to the filler plate, shaken for 12 seconds, and 250 μL of buffer were added to donor side and 100 μL to the receiver side. The assay plate was shaken for 45 min before adding the compounds. The test compounds (2.5 μL) were added to the donor side. The assay was run as replicates: Assay plates1 and 2 tested the sample plate 1; assay plates 3 and 4 tested the sample plate 2. The assay plates were then incubated and shaken for 3 hours at room temperature.
The assay samples were transferred to the HPLC analysis plates and 100 μL of receiver solution were aspirated and transferred to the receiver for analysis. Similarly, another 100 μL from the donor solution were transferred to the donor analysis plate.
Compound concentration was measured by HPLC at different time-points and permeability was established as nm/sec.

[5] = target: human serum albumin (Homo sapiens, UniProt P02768); assay: Human serum albumin (HSA) binding assay; format: in vitro ADME; settings: human serum albumin binding
human serum albumin, sequence (P02768 25-609): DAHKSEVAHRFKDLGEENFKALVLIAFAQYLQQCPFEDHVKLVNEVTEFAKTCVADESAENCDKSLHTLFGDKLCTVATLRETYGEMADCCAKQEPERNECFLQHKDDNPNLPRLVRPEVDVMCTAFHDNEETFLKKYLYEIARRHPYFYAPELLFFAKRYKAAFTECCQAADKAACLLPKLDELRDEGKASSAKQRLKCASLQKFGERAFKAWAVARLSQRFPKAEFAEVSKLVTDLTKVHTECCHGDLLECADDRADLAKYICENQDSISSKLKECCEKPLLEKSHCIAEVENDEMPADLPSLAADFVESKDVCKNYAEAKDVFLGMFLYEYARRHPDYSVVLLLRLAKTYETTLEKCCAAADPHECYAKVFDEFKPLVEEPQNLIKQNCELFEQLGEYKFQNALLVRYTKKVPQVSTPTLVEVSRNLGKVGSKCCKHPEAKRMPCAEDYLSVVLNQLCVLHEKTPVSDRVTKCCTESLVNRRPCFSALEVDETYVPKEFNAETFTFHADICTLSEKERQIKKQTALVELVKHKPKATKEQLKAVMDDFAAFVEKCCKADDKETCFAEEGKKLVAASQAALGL
Method: HSA binding assay was performed according to the method described by Valko K, et al. The basic principle of the measurements is the determination of gradient retention times of compounds on immobilized HSA column and converting these retention times to the appropriate property values using calibration. The peaks are detected and identified by UV. Calibration sets of compounds are measured before each run for which the HSA binding values are known. The retention times of the calibration set of compounds are plotted against these known values. The slope and the intercept of the obtained straight lines are used to calculate the HSA binding for the unknown compounds.

[6] = Intrinsic clearance (CLint) assay, human liver microsomes; format: in vitro ADME; settings: for CLint Human: human liver microsomes; for half-life at 0.5 µM: human, pooled human liver microsomes, pH 7.4, human liver microsomes, read-out: Microsomal t1/2 Human; for % LBF Human: liver blood flow; for CLpred Human: predicted metabolic clearance
Method: as §1, §2

[7] = amide bond, 18-membered ring, HATU/HOBt/DIEA
[8] = reversed phase HPLC column (Gemini NX C18)

COc1ccc(C[C@@H]2NC(=O)[C@@H](CCCN)NC(=O)[C@H](CC(N)=O)NC(=O)[C@H](C(C)C)NC(=O)[C@@H](CC(C)C)NC(=O)[C@H](CC(C)C)NC2=O)cc1 [Compound 15c] (cyclo(L[dL]VN[dOrn]Y(Me)))
chromatographic logD [1, 8]: 1.73 | solubility kinetic at 1 h [2]: ≥ 189 µg/mL | % LBF Mouse [3]: 24.00% | CLint Mouse [3]: 0.78 mL/min/g tissue | half-life at 0.5 µM [3]: 1.43 h | CLpred Mouse [3]: 30.20 mL/min/kg | Papp at 3 h [4]: < 1 ×10⁻⁶ cm/s | % HSA [5]: 46.55% | CLint Human [6]: <0.40 mL/min/g tissue | half-life at 0.5 µM [6]: > 2.31 h | % LBF Human [6]: <35.08% | CLpred Human [6]: <6.35 mL/min/kg

CC[C@H](C)[C@@H]1NC(=O)[C@@H](CC(C)C)NC(=O)[C@H](CC(C)C)NC(=O)[C@H](Cc2c[nH]c3ccccc23)NC(=O)[C@@H](CCCNC(=N)N)NC(=O)[C@H](CC(N)=O)NC1=O [Compound 13c] (cyclo(IN[dR]WL[dL]))
chromatographic logD [1]: 2.05 | solubility kinetic at 1 h [2]: ≥ 189 µg/mL | % LBF Mouse [3]: 29.00% | CLint Mouse [3]: 1.01 mL/min/g tissue | half-life at 0.5 µM [3]: 1.05 h | CLpred Mouse [3]: 36.60 mL/min/kg | Papp at 3 h [4]: 1.1 ×10⁻⁶ cm/s | % HSA [5]: 87.55% | CLint Human [6]: 7.44 mL/min/g tissue | half-life at 0.5 µM [6]: 0.123 h | % LBF Human [6]: 91.01% | CLpred Human [6]: 16.38 mL/min/kg

CC(C)C[C@@H]1NC(=O)[C@H](Cc2c[nH]c3ccccc23)NC(=O)[C@@H](CCCN)NC(=O)[C@H](CC(N)=O)N(C)C(=O)[C@H](C(C)C)NC(=O)[C@@H](CC(C)C)N(C)C1=O [Compound 25c] (cyclo(L[dNMeL]V[NMeN][dOrn]W))
chromatographic logD [1, 8]: 2.25 | solubility kinetic at 1 h [2]: ≥ 221 µg/mL | % LBF Mouse [3]: <16.3% | CLint Mouse [3]: <0.48 mL/min/g tissue | half-life at 0.5 µM [3]: > 2.31 h | CLpred Mouse [3]: <20.50 mL/min/kg | Papp at 3 h [4]: < 1 ×10⁻⁶ cm/s | % HSA [5]: 82.97% | CLint Human [6]: <0.40 mL/min/g tissue | half-life at 0.5 µM [6]: > 2.31 h | % LBF Human [6]: <35.08% | CLpred Human [6]: <6.35 mL/min/kg

CC(C)C[C@H]1NC(=O)[C@H](CC(C)C)N(C)C(=O)[C@H](Cc2c[nH]c3ccccc23)NC(=O)[C@@H](CCCN)NC(=O)[C@H](CC(N)=O)NC(=O)[C@H](C(C)C)N(C)C1=O [Compound 24c] (cyclo(N[dOrn]W[NMeL][dL][NMeV]))
chromatographic logD [1, 8]: 2.18 | solubility kinetic at 1 h [2]: ≥ 217 µg/mL | % LBF Mouse [3]: 42.0% | CLint Mouse [3]: 1.79 mL/min/g tissue | half-life at 0.5 µM [3]: 0.261 h | CLpred Mouse [3]: 52.90 mL/min/kg | Papp at 3 h [4]: < 1 ×10⁻⁶ cm/s | % HSA [5]: 87.02% | CLint Human [6]: 3.51 mL/min/g tissue | half-life at 0.5 µM [6]: 0.621 h | % LBF Human [6]: 82.70% | CLpred Human [6]: 14.90 mL/min/kg

CC(C)C[C@H]1NC(=O)[C@H](CC(C)C)N(C)C(=O)[C@H](Cc2c[nH]c3ccccc23)NC(=O)[C@@H](CCCN)NC(=O)[C@H](CC(N)=O)N(C)C(=O)[C@H](C(C)C)NC1=O [Compound 23c] (cyclo([NMeL][dL]V[NMeN][dOrn]W))
chromatographic logD [1, 8]: 2 | solubility kinetic at 1 h [2]: ≥ 174 µg/mL | % LBF Mouse [3]: 30.00% | CLint Mouse [3]: 1.06 mL/min/g tissue | half-life at 0.5 µM [3]: 1.05 h | CLpred Mouse [3]: 37.80 mL/min/kg | Papp at 3 h [4]: < 1 ×10⁻⁶ cm/s | % HSA [5]: 82.21% | CLint Human [6]: 3.19 mL/min/g tissue | half-life at 0.5 µM [6]: 0.287 h | % LBF Human [6]: 81.29% | CLpred Human [6]: 14.63 mL/min/kg

CC(C)C[C@@H]1NC(=O)[C@H](Cc2c[nH]c3ccccc23)NC(=O)[C@@H](CCCN)NC(=O)[C@H](CC(N)=O)NC(=O)[C@H](C(C)C)N(C)C(=O)[C@@H](CC(C)C)NC1=O [Compound 22c] (cyclo(L[dL][NMeV]N[dOrn]W))
chromatographic logD [1, 8]: 1.96 | solubility kinetic at 1 h [2]: ≥ 153 µg/mL | % LBF Mouse [3]: <16.3% | CLint Mouse [3]: <0.48 mL/min/g tissue | half-life at 0.5 µM [3]: > 2.31 h | CLpred Mouse [3]: <20.50 mL/min/kg | Papp at 3 h [4]: < 1 ×10⁻⁶ cm/s | % HSA [5]: 73.98% | CLint Human [6]: <0.40 mL/min/g tissue | half-life at 0.5 µM [6]: > 2.31 h | % LBF Human [6]: <35.08% | CLpred Human [6]: <6.35 mL/min/kg

CC(C)C[C@H]1NC(=O)[C@H](CC(C)C)N(C)C(=O)[C@H](Cc2cn(C(=O)OC(C)(C)C)c3ccccc23)NC(=O)[C@@H](CCCNC(=O)OC(C)(C)C)NC(=O)[C@H](CC(=O)NC(c2ccccc2)(c2ccccc2)c2ccccc2)NC(=O)[C@H](C(C)C)N(C)C1=O [cyclo (Trp(Boc)-N-Me-Leu-D-Leu-N-Me-Val-Asn(Trt)-D-Orn(Boc))]
ring closure, isolated yield ([7]; from H-Trp(Boc)-MeLeu-dLeu-MeVal-Asn(Trt)-dOrn(Boc)-OH): 73%

CC[C@H](C)[C@@H]1NC(=O)[C@H](CC(C)C)NC(=O)[C@H](Cc2cn(C(=O)OC(C)(C)C)c3ccccc23)NC(=O)[C@@H](CCCNC(=O)OC(C)(C)C)NC(=O)[C@H](CC(=O)NC(c2ccccc2)(c2ccccc2)c2ccccc2)NC(=O)[C@H](C(C)C)NC1=O [cyclo(Asn(Trt)-D-Orn(Boc)-Trp(Boc)-Leu-Ile-Val)]
ring closure, isolated yield ([7]; from H-Asn(Trt)-dOrn(Boc)-Trp(Boc)-Leu-Ile-Val-OH): 47%

CC[C@H](C)[C@@H]1NC(=O)[C@H]([C@@H](C)CC)NC(=O)[C@@H](CC(C)C)NC(=O)[C@H](CC(C)C)NC(=O)[C@H](Cc2cn(C(=O)OC(C)(C)C)c3ccccc23)NC(=O)[C@@H](CCCNC(=O)OC(C)(C)C)NC1=O [cyclo(D-Leu-Ile-Ile-D-Orn(Boc)-Trp(Boc)-Leu)]
ring closure, isolated yield ([7]; from H-dLeu-Ile-Ile-dOrn(Boc)-Trp(Boc)-Leu-OH): 54%

CC[C@H](C)[C@@H]1NC(=O)[C@@H](CC(C)C)NC(=O)[C@H](CC(C)C)NC(=O)[C@H](Cc2cn(C(=O)OC(C)(C)C)c3ccccc23)NC(=O)[C@@H](CCCNC(=N)NS(=O)(=O)c2c(C)c(C)c3c(c2C)CC(C)(C)O3)NC(=O)[C@H](CC(=O)NC(c2ccccc2)(c2ccccc2)c2ccccc2)NC1=O [cyclo (D-Leu-Ile-Asn(Trt)-D-Arg (Pbf)-Trp(Boc)-Leu)]
ring closure, isolated yield ([7]; from H-dLeu-Ile-Asn(Trt)-dArg(Pbf)-Trp(Boc)-Leu-OH): 70%
